Data as given in patent US20040110844A1, “Anti-tumor pharmaceutical composition comprising N-vanillyl fatty acid amide” (KUREHA CHEMICAL INDUSTRY COMPANY, Limited, priority 2002, published 2004).

Legend:
caspase 3 activity [1] = assay: Measurement of caspase 3 activity (Example 7, U937); type: cell-based, human
Method: In particular, when the concentration is 100 μM, although the survival ratio of the cells with capsaicin is about 50%, that with Dohevanil is zero (0) %. Accordingly, it is apparent as compared with capsaicin that Dohevanil is very low in the degree of hotness and stimulus, and coincidentally has a higher anti-leukemic cell effects.

HeLa cells = assay: HeLa cell growth by WST-1 method and LDH active release; type: cell-based, human; conditions: for survival ratio of the cells: 100 μM, HeLa cells; for action on the growth of HeLa cells (in words): 10, 30, 50, 100 μM
Method: (§1) In order to make a comparison between the anti-tumor effects of capsaicin and Dohevanil, the following experimentation was carried out using HeLa cells derived from human uterocervical cancer as a tomor cell and NIH/3T3 cells as a normal cell. These cells used in the experimentation were cultured in RPMI-1640 medium (pH7.2) with 5% bovine fetal serum under the culture conditions being maintained in 5% CO2 and at 37 degrees Celsius. capsaicin or Dohevanil was added to each of the cell suspensions in the concentration of 10 μM, 30 μM, 50 μM, or 100 μM and then the cells were cultured. In this comparative example, the capability of cell growth was measured by WST-1 method and LDH active release into the supernatant as an indicator.
(§2) In this connection, the term “WST-1 method” used in the example means a method comprising reducing a formazan by using a reductase activity of mitochondria and determining an absorption of the coloring. The absorption may be used as an indicator of the cell growth because the reductase activity of mitochondria is lost if the cells die. The term “LDH active release” as used herein means that LDH (lactate dehydrogenase) is released due to a destruction of cell membrane accompanied with a cell death, and the measured value of the active release can be used as an indicator of the cell death.

[2] = tested on: Hela cell (uterocervica cancer cell); conditions: low concentration; cited from earlier work
caspase 3 activity [3] = assay: Measurement of caspase 3 activity (Example 6); type: cell-based
B16F10 melanoma cell [4] = assay: Growth of B16F10 melanoma cells, number of cells counted with trypan blue and hemocytometer; type: cell-based, mouse; conditions: for cells in culture relative to the control culture: 50 μM; for cells in culture relative to the control culture / cells in culture relative to the control culture (survival ratio): cultured for 48 hours, B16F10; for cells in culture relative to the control culture (survival ratio): 100 μM; for action on the growth of melanoma cells (in words): 10-300 μM capsaicin, 10-100 μM Dohevanil, 48 hours, versus control
Method: B16F10 melanoma cell used for the comparison was a malignant melanoma cell derived from a mouse. The melanoma cells were cultured under 5% CO2 condition at 37 degrees Celsius in DMEM culture medium (pH7.2) including 10% of bovine fetus serum and penicillin/streptomycin solution. After the cells reached from 70% to 80% confluent, the cells were treated with trypsin-EDTA to release from the wall of culture device and were subjected to passage culture.
The number of cells were measured by the process comprising suspending the cells collected, sufficiently mixing the suspension with a trypan blue stain solution in the same volume of the suspension, watching the suspension using a phase contrast microscope and measuring the number of cells with a hemocytometer (Burker-Turk hemocytometer, Nippon Rinsho Kikai Kogyo Ltd.)
In order to examine the action of capsaicin to the growth of melanoma cells, the number of the cells were measured after 10 μM, 30 μM, 50 μM, 100 μM, or 300 μM of capsaicin was added to the MDEM media in which the melanoma cells exist and then the cells were cultured for 48 hours. […] In order to examine the action of Dohevanil to the growth of melanoma cells, the number of the cells were measured in the same manner as conducted for capsaicin except that capsaicin was replaced with Dohevanil. The melanoma cells were cultured in 10 μM, 30 μM, 50 μM, or 100 μM of Dohevanil.

NIH/3T3 cells = assay: NIH/3T3 normal cell growth by WST-1 method and LDH active release; type: cell-based; conditions: concentration 30 μM or less
Method: as §1, §2

B16F10 melanoma cell [5] = assay: Hoechst 33342 fluorescence microscopy for apoptosis in melanoma cells; type: cell-based, mouse; conditions: Hoechst33342, each concentration, versus control
Method: The observation using the fluorescence microscope was carried out by the process comprising washing with PBS (−) a suspension of B16F10 cells treated with an agent for a given time (1×10^6 cells/ml), fixing the cells with 4% paraformaldehyde overnight, washing the cell fixed solution with PBS(−), suspending the cells in 20 μl of PBS (−), mixing 2 μl of fluorescence indicator (Hoechst 33342 (1 mM)) with each 5 μl of the cell suspension, placing a cover glass on the mixture, watching it using the fluorescence microscope (U region) and photographing.
The shape of the cells was observed using Hoechst33342 (dye) which specifically combined with the chromosome by fluorescence microscope to find out whether or not the cell death by capsaicin or Dohevanil was due to the apoptosis. As a result, the aggregation of chromatins and the disorder of nuclear shape, which are characteristics of the cell death by apoptosis, were observed by comparison with the control in each concentration of capsaicin or Dohevanil.

[6] = tested on: normal cells of human mammary gland epithelium and of liver and kidney of the rat; conditions: cited from earlier work
[7] = tested on: HL-60 cell (acute promyelocytic leukemia cell); conditions: low concentration; cited from earlier work
[8] = tested on: human acute leukemia cell U937; assay: U937 cell growth by cell differential staining with trypan blue; type: cell-based; conditions: for survival ratio of the cells: 100 μM, U937 cells; for action on the growth of U937 cells (in words): 10, 30, 50, 100 μM
Method: In order to make a comparison between the anti-leukemic cell effects of capsaicin and Dohevanil, the following experimentation was carried out using a human acute leukemia cell U937. The U937 cells were cultured in RPMI-1640 medium (pH7.2) with 5% bovine fetal serum under the culture conditions being maintained in 5% CO2 and at 37 degrees Celsius. capsaicin or Dohevanil was added to each of the cell suspensions in the concentration of 10 μM, 30 μM, 50 μM,or 100 μM and then the cells were cultured. In this comparative example, the capability of cell growth was evaluated using the measured value as an indicator obtained by a method for the cell differential staining with trypan blue.
The method for the cell differential staining with trypan blue is a method utilizing the characters that trypan blue combines with a protein to color in blue and that trypan blue enters into the dead cells due to the loss of a membrane function to prevent from its invasion. Since the dead cells are colored in blue with trypan blue, the survival ratio of the cells can be determined by counting the stained cells using a microscope.

B16F10 melanoma cell [9] = assay: Phase contrast microscope observation of treated melanoma cells; type: cell-based, mouse; conditions: Dohevanil 50 μM compared with capsaicin 300 μM
Method: The observation of cytomorphology using the light microscope was carried out by counting with TMS (NIKON Corporation) and photographing, after plating the cells on a multiplate, and culturing it for a given time.
The shape and appearance of the melanoma cells treated in the presence of capsaicin in the concentration of 300 μM or Dohevanil in the concentration of 50 μM was observed using a phase contrast microscope.

Compound | apoptosis according to caspase 3 activity (caspase 3 activity [1]) | survival ratio of the cells (HeLa cells) | action on the growth of HeLa cells (in words) (HeLa cells) | proliferative inhibitory effect (in words) [2] | apoptosis according to caspase 3 activity (caspase 3 activity [3]) | cells in culture relative to the control culture (B16F10 melanoma cell [4]) | cells in culture relative to the control culture (survival ratio) (B16F10 melanoma cell [4]) | action on the growth of melanoma cells (in words) (B16F10 melanoma cell [4]) | action to NIH/3T3 normal cells (in words) (NIH/3T3 cells) | induction of apoptosis (aggregation of chromatins, disorder of nuclear shape) (B16F10 melanoma cell [5]) | proliferative inhibitory effect to normal cells (in words) [6] | proliferative inhibitory effect (in words) [7] | survival ratio of the cells [8] | action on the growth of U937 cells (in words) [8] | melanoma cells adhered to the wall of culture vessel (in words) (B16F10 melanoma cell [9])
COc1cc(CNC(=O)CCCCC=CC(C)C)ccc1O [capsaicin, 8-methyl-N-vanillyl-6-nonenamide] | induce the apoptosis to cause the cell death | about 50% | suppress the growth of HeLa cells depending on their concentrations | proliferative inhibitory effect in a low concentration | induce the apoptosis to cause the cell death | about 60% | about 50% | suppressed the growth of the cells depending on the concentration | hardly act | induce the apoptosis to melanoma cells | without any proliferative inhibitory effects | proliferative inhibitory effect in a low concentration | about 50% | suppress the growth of U937 cells depending on their concentrations | –
CC/C=C\C/C=C\C/C=C\C/C=C\C/C=C\C/C=C\CCC(=O)NCc1ccc(O)c(OC)c1 [Dohevanil, N-vanillyl-4,7,10,13,16,19-Docosahexaenamide] | induce the apoptosis to cause the cell death | 0% | suppress the growth of HeLa cells depending on their concentrations | – | induce the apoptosis to cause the cell death | about 10% | 0% | suppressed the growth of the cells depending on the concentration | hardly act | strongly induces the apoptosis | – | – | 0% | suppress the growth of U937 cells depending on their concentrations | extremely reduced
